31 molecules from patent US11104674B2 (Hoffmann-La Roche Inc., priority 2016, dated 2021) can be followed below.

The subject of the test is HBsAg. Nature of the test: HBsAg assay (chemiluminescence immunoassay of secreted HBsAg). The format is cell-based, HBV. To be noted: Hepatitis B virus, HepG2.2.15, HBsAg secretion, HepG2.2.15 cells, CLIA of culture supernatant. The procedure, abridged: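 HepG2.2.15 cells, in duplicate, treated with three-fold serial compound dilutions (1% DMSO final); secreted HBsAg in supernatant quantified by chemiluminescence immunoassay; IC50 is the concentration reducing HBsAg secretion by 50% versus the DMSO control.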

By IC50 is commonly meant the concentration that inhibits the measured activity by half. A high value points to weaker potency. The molecule `CC1c2cnc(-c3ncccn3)nc2CCN1c1cc(F)cc(N2CCN(CCC(N)=O)CC2)n1` (stereo not shown) [Example 103, 3-[4-[4-fluoro-6-(5-methyl-2-pyrimidin-2-yl-7,8-dihydro-5H-pyrido[4,3-d]pyrimidin-6-yl)-2-pyridyl]piperazin-1-yl]propanamide] displayed a concentration for half-maximal inhibition (IC50) of 1.35 µM.

The molecule `CC1c2cnc(-c3ncccn3)nc2CCN1c1cc(N2CCN(CCC(N)=O)CC2)cc(F)n1` (stereo not shown) [Example 104, 3-[4-[2-fluoro-6-(5-methyl-2-pyrimidin-2-yl-7,8-dihydro-5H-pyrido[4,3-d]pyrimidin-6-yl)-4-pyridyl]piperazin-1-yl]propanamide] showed an IC50 of 0.22 µM.

In turn, `CC1c2cnc(-c3ncccn3)nc2CCN1c1cc(F)cc(N2CCN(S(C)(=O)=O)C(C)C2)n1` (stereo not shown) [Example 105, 6-[4-fluoro-6-(3-methyl-4-methylsulfonyl-piperazin-1-yl)-2-pyridyl]-5-methyl-2-pyrimidin-2-yl-7,8-dihydro-5H-pyrido[4,3-d]pyrimidine] yielded an IC50 of 0.023 µM.

`CC1c2cnc(-c3ncccn3)nc2CCN1c1cc(N2CCN(S(C)(=O)=O)C(C)C2)cc(F)n1` (stereo not shown) [Example 106, 6-[6-fluoro-4-(3-methyl-4-methylsulfonyl-piperazin-1-yl)-2-pyridyl]-5-methyl-2-pyrimidin-2-yl-7,8-dihydro-5H-pyrido[4,3-d]pyrimidine] yielded an IC50 of 0.007 µM.

Molecule `CC1c2cnc(-c3ncccn3)nc2CCN1c1cc(F)nc(N2CCN(S(C)(=O)=O)CC2)c1` (stereo not shown) [Example 107, 6-[2-Fluoro-6-(4-methylsulfonylpiperazin-1-yl)-4-pyridyl]-5-methyl-2-pyrimidin-2-yl-7,8-dihydro-5H-pyrido[4,3-d]pyrimidine] yielded an IC50 of 0.01 µM.

On to `COC1CCN(c2cc(N3CCc4nc(-c5ncccn5)ncc4C3C)cc(F)n2)C1` (stereo not shown) [Example 108, 6-[2-Fluoro-6-(3-methoxypyrrolidin-1-yl)-4-pyridyl]-5-methyl-2-pyrimidin-2-yl-7,8-dihydro-5H-pyrido[4,3-d]pyrimidine], for which the IC50 was determined as 0.013 µM.

Molecule `CC1c2cnc(-c3ncccn3)nc2CCN1c1cc(F)cc(N2CCC2)n1` (stereo not shown) [Example 109, 6-[6-(azetidin-1-yl)-4-fluoro-2-pyridyl]-5-methyl-2-pyrimidin-2-yl-7,8-dihydro-5H-pyrido[4,3-d]pyrimidine] returned an IC50 of 0.021 µM.

For `CC1c2cnc(-c3ncccn3)nc2CCN1c1cc(N2CCC2)cc(F)n1` (stereo not shown) [Example 110, 6-[4-(azetidin-1-yl)-6-fluoro-2-pyridyl]-5-methyl-2-pyrimidin-2-yl-7,8-dihydro-5H-pyrido[4,3-d]pyrimidine], 0.008 µM corresponded to half-maximal inhibition (IC50).

The molecule `COC1CN(c2cc(F)cc(N3CCc4nc(-c5ncccn5)ncc4C3C)n2)C1` (stereo not shown) [Example 111, 6-[4-fluoro-6-(3-methoxyazetidin-1-yl)-2-pyridyl]-5-methyl-2-pyrimidin-2-yl-7,8-dihydro-5H-pyrido[4,3-d]pyrimidine] displayed an IC50 of 0.026 µM.

`CC1c2cnc(-c3ncccn3)nc2CCN1c1cc(N2CCCC2=O)cc(F)n1` (stereo not shown) [Example 113, 1-[2-Fluoro-6-(5-methyl-2-pyrimidin-2-yl-7,8-dihydro-5H-pyrido[4,3-d]pyrimidin-6-yl)-4-pyridyl]pyrrolidin-2-one] yielded an IC50 of 0.004 µM.

Regarding `CC1c2cnc(-c3ncccn3)nc2CCN1c1cc(N2CC(C)(C)OC2=O)cc(F)n1` (stereo not shown) [Example 114, 3-[2-Fluoro-6-(5-methyl-2-pyrimidin-2-yl-7,8-dihydro-5H-pyrido[4,3-d]pyrimidin-6-yl)-4-pyridyl]-5,5-dimethyl-oxazolidin-2-one], half-maximal inhibition (IC50) required 0.008 µM.

Molecule `CC1C(=O)NCCN1c1cc(F)cc(N2CCc3nc(-c4ncccn4)ncc3C2C)n1` (stereo not shown) [Example 116, 4-[4-fluoro-6-(5-methyl-2-pyrimidin-2-yl-7,8-dihydro-5H-pyrido[4,3-d]pyrimidin-6-yl)-2-pyridyl]-3-methyl-piperazin-2-one] returned an IC50 of 0.103 µM.

Molecule `CC1C(=O)NCCN1c1cc(F)nc(N2CCc3nc(-c4ncccn4)ncc3C2C)c1` (stereo not shown) [Example 117, 4-[2-fluoro-6-(5-methyl-2-pyrimidin-2-yl-7,8-dihydro-5H-pyrido[4,3-d]pyrimidin-6-yl)-4-pyridyl]-3-methyl-piperazin-2-one] had an IC50 of 0.106 µM.

In turn, `CC1c2cnc(-c3ncccn3)nc2CCN1c1cc(F)cc(N2CC(NS(C)(=O)=O)C2)n1` (stereo not shown) [Example 118, N-[1-[4-fluoro-6-(5-methyl-2-pyrimidin-2-yl-7,8-dihydro-5H-pyrido[4,3-d]pyrimidin-6-yl)-2-pyridyl]azetidin-3-yl]methanesulfonamide] returned an IC50 of 0.094 µM.

Regarding `CC1c2cnc(-c3ncccn3)nc2CCN1c1cc(N2CC(NS(C)(=O)=O)C2)cc(F)n1` (stereo not shown) [Example 119, N-[1-[2-fluoro-6-(5-methyl-2-pyrimidin-2-yl-7,8-dihydro-5H-pyrido[4,3-d]pyrimidin-6-yl)-4-pyridyl]azetidin-3-yl]methanesulfonamide], the IC50 was found to be 0.057 µM.

In turn, `CC1c2cnc(-c3ncccn3)nc2CCN1c1cc(F)cc(NC2CNC2)n1` (stereo not shown) [Example 120, N-(azetidin-3-yl)-4-fluoro-6-(5-methyl-2-pyrimidin-2-yl-7,8-dihydro-5H-pyrido[4,3-d]pyrimidin-6-yl)pyridin-2-amine] showed an IC50 of 33.3 µM.

As to `CC1c2cnc(-c3ncccn3)nc2CCN1c1cc(NC2CNC2)cc(F)n1` (stereo not shown) [Example 121, N-(azetidin-3-yl)-2-fluoro-6-(5-methyl-2-pyrimidin-2-yl-7,8-dihydro-5H-pyrido[4,3-d]pyrimidin-6-yl)pyridin-4-amine], inhibition was half-maximal at 0.496 µM (IC50).

Turning to `CC1c2cnc(-c3ncccn3)nc2CCN1c1cc(F)cc(N2CC(F)C2)n1` (stereo not shown) [Example 122, 6-[4-fluoro-6-(3-fluoroazetidin-1-yl)-2-pyridyl]-5-methyl-2-pyrimidin-2-yl-7,8-dihydro-5H-pyrido[4,3-d]pyrimidine], 0.028 µM corresponded to half-maximal inhibition (IC50).

`CC1c2cnc(-c3ncccn3)nc2CCN1c1cc(N2CC(O)C2)cc(F)n1` (stereo not shown) [Example 124, 1-[2-Fluoro-6-(5-methyl-2-pyrimidin-2-yl-7,8-dihydro-5H-pyrido[4,3-d]pyrimidin-6-yl)-4-pyridyl]azetidin-3-ol]: half-maximal inhibition (IC50) was put at 0.033 µM.

Take `CC1c2cnc(-c3ncccn3)nc2CCN1c1cc(F)cc(N2CC(F)(F)C2)n1` (stereo not shown) [Example 125, 6-[6-(3,3-difluoroazetidin-1-yl)-4-fluoro-2-pyridyl]-5-methyl-2-pyrimidin-2-yl-7,8-dihydro-5H-pyrido[4,3-d]pyrimidine]: the IC50 worked out at 0.038 µM.

`CC1c2cnc(-c3ncccn3)nc2CCN1c1cc(N2CC(F)(F)C2)cc(F)n1` (stereo not shown) [Example 126, 6-[4-(3,3-difluoroazetidin-1-yl)-6-fluoro-2-pyridyl]-5-methyl-2-pyrimidin-2-yl-7,8-dihydro-5H-pyrido[4,3-d]pyrimidine] displayed an IC50 of 0.012 µM.

`CC(=O)N1CCN(c2cc(F)nc(N3CCc4nc(-c5ncccn5)ncc4C3C)c2)C(=O)C1` (stereo not shown) [Example 127, 4-Acetyl-1-[2-fluoro-6-(5-methyl-2-pyrimidin-2-yl-7,8-dihydro-5H-pyrido[4,3-d]pyrimidin-6-yl)-4-pyridyl]piperazin-2-one] gave an IC50 of 0.494 µM.

`CC1c2cnc(-c3ncccn3)nc2CCN1c1cc(N2CCN(S(C)(=O)=O)CC2=O)cc(F)n1` (stereo not shown) [Example 128, 1-[2-Fluoro-6-(5-methyl-2-pyrimidin-2-yl-7,8-dihydro-5H-pyrido[4,3-d]pyrimidin-6-yl)-4-pyridyl]-4-methylsulfonyl-piperazin-2-one] returned an IC50 of 0.417 µM.

`CC1c2cnc(-c3ncccn3)nc2CCN1c1cc(F)cc(N2CC3(COC3)C2)n1` (stereo not shown) [Example 129, 6-[4-fluoro-6-(5-methyl-2-pyrimidin-2-yl-7,8-dihydro-5H-pyrido[4,3-d]pyrimidin-6-yl)-2-pyridyl]-2-oxa-6-azaspiro[3.3]heptane] had a 50% inhibitory concentration (IC50) of 0.036 µM.

`CC1c2cnc(-c3ncccn3)nc2CCN1c1cc(N2CC3(COC3)C2)cc(F)n1` (stereo not shown) [Example 130, 6-[2-fluoro-6-(5-methyl-2-pyrimidin-2-yl-7,8-dihydro-5H-pyrido[4,3-d]pyrimidin-6-yl)-4-pyridyl]-2-oxa-6-azaspiro[3.3]heptane] showed a half-inhibitory concentration (IC50) of 0.012 µM.

In turn, `CC(=O)NC1CN(c2cc(F)cc(N3CCc4nc(-c5ncccn5)ncc4C3C)n2)C1` (stereo not shown) [Example 131, N-[1-[4-fluoro-6-(5-methyl-2-pyrimidin-2-yl-7,8-dihydro-5H-pyrido[4,3-d]pyrimidin-6-yl)-2-pyridyl]azetidin-3-yl]acetamide] came in with an IC50 of 0.043 µM.

Molecule `CC(=O)NC1CN(c2cc(F)nc(N3CCc4nc(-c5ncccn5)ncc4C3C)c2)C1` (stereo not shown) [Example 132, N-[1-[2-fluoro-6-(5-methyl-2-pyrimidin-2-yl-7,8-dihydro-5H-pyrido[4,3-d]pyrimidin-6-yl)-4-pyridyl]azetidin-3-yl]acetamide] displayed an IC50 of 0.024 µM.

The molecule `CC1CN(c2cc(F)cc(N3CCc4nc(-c5ncccn5)ncc4C3C)n2)CC(=O)N1` (stereo not shown) [Example 133, 4-[4-fluoro-6-(5-methyl-2-pyrimidin-2-yl-7,8-dihydro-5H-pyrido[4,3-d]pyrimidin-6-yl)-2-pyridyl]-6-methyl-piperazin-2-one] returned an IC50 of 0.009 µM.

Consider `CC1CN(c2cc(F)nc(N3CCc4nc(-c5ncccn5)ncc4C3C)c2)CC(=O)N1` (stereo not shown) [Example 134, 4-[2-fluoro-6-(5-methyl-2-pyrimidin-2-yl-7,8-dihydro-5H-pyrido[4,3-d]pyrimidin-6-yl)-4-pyridyl]-6-methyl-piperazin-2-one], for which 0.015 µM corresponded to half-maximal inhibition (IC50).

Molecule `CC1c2cnc(-c3ncccn3)nc2CCN1c1cc(N2CC(CO)C2)cc(F)n1` (stereo not shown) [Example 135, [1-[2-fluoro-6-(5-methyl-2-pyrimidin-2-yl-7,8-dihydro-5H-pyrido[4,3-d]pyrimidin-6-yl)-4-pyridyl]azetidin-3-yl]methanol] yielded an IC50 of 0.008 µM.

On to `CC1c2cnc(-c3ncccn3)nc2CCN1c1cc(F)cc(N2CC(CO)C2)n1` (stereo not shown) [Example 136, [1-[4-fluoro-6-(5-methyl-2-pyrimidin-2-yl-7,8-dihydro-5H-pyrido[4,3-d]pyrimidin-6-yl)-2-pyridyl]azetidin-3-yl]methanol], for which the concentration for half-maximal inhibition (IC50) stood at 0.023 µM.
